“Also recorded” adds a separate entry of the source. Counter-ions that a name gives are not always drawn.
What was measured:
Type in all cases: cell-based, human
[1] = test system: SK-N-SH cells; experiment: Aβ-induced neurotoxicity, MTT viability assay; settings: 10 μM CATPB, 25 μM Aβ
Protocol: To determine the impact of FFAR2 inhibition on Aβ-induced neuronal cell toxicity, the MTT viability assay was performed (Ronicke et al., 2008). SK-N-SH cells (1×10^3 cells per well) were plated in a 96-well plate containing DMEM medium supplemented with 10% FBS and 1% antibiotics and grown at 37° C. for 24 h. Then, media was removed, and cells were washed with PBS before being replenished with DMEM media containing 1% FBS and 10 μM FFAR2 inhibitor (CATPB, Tocris) and incubated at 37° C. for 2 h. Then, cells were treated with Aβ 25-32 peptide (25 μM, Sigma) and incubated for 4 h. Afterward, the media was replaced with 100 μl of fresh media, and 10 μl of MTT reagent (5 mg/ml in phosphate buffer [pH 7.2]) was added and mixed in each well before an additional 4 h incubation. Then, DMSO (50 μl) was added in each well and mixed thoroughly to dissolve formazan crystals. The absorbance was measured at 570 nm.

[2] = test system: FFAR2 signaling; experiment: Western blot of phospho-ERK1/2 in SK-N-SH cells (FFAR2 signal activation); settings: 10 μM, 30 min
Protocol: To determine the FFAR2 signal activating property of selected compounds, SK-N-SH cells were treated with 10 μM of shortlisted compounds for 30 min at 37° C. and harvested for total protein extraction. […] After sonication, cell extracts were centrifuged at 8,000×g for 10 min at 4° C., and the supernatant was separated in a fresh tube. The total protein concentration of the supernatant was measured using a BCA protein assay kit. An equal amount of total protein (45 μg) from each sample was dissolved in loading buffer and loaded in 4% stacking gel and 10% separating SDS-PAGE gel and resolved at 100 V. Proteins were transferred on a 0.22 μm PVDF membrane and blots were developed with anti-ERK1/2, anti-phosphoERK1/2, ubiquitin (P4D1), and Aβ (6E10) primary antibodies followed by their secondary antibodies and bands were visualized using the Pierce™ Fast Western Blot Kit, ECL Substrate acquired using Syngene Pxi. Band densities were also quantified using NIH ImageJ software. β-actin was used as an internal control.

[3] = test system: FFAR2 signaling; experiment: cAMP-Glo assay, forskolin-induced cAMP in SK-N-SH cells; settings: 10 μM compound, 10 μM forskolin
Protocol: FFAR2 is a Gi/o signaling receptor, which reduces cytosolic cAMP (Falomir-Lockhart et al., 2019). To determine the FFAR2 signaling activating potential of selected compounds, the cAMP-Glo™ Assay was used to measure intracellular cAMP. SK-N-SH cells (1×10^3 cells per well) were plated in a white 96-well plate for 24 h and then treated with 10 μM compounds and 10 μM forskolin (a positive control) dissolved in induction buffer. The cAMP levels were detected using a Luminescence Microplate Reader.

O=C(O)C[C@H](Cc1ccc(C(F)(F)F)cc1)NC(=O)Cc1cccc(Cl)c1 [CATPB, reference compound]
Aβ-induced cell death / cell viability under FFAR2 inhibition [1]: further reduced cell viability; also recorded: further exacerbated Aβ-induced cell death

CC(C)C[C@H](N)C(N)=O [Leucinamide]
descending order of phospho-ERK1/2 levels [2]: Fenchol>Octopamine>Carvamenthenol>Camphene>Pentanone>Synephrine>Leucinamide>Carene>α-Terpineol>Breneol>L-Fenchone>D-Fenchone>Norpseudoephedrine HCl

CC1=CCC(C(C)(C)O)CC1 (stereo not drawn) [α-Terpineol]
descending order of phospho-ERK1/2 levels [2]: Fenchol>Octopamine>Carvamenthenol>Camphene>Pentanone>Synephrine>Leucinamide>Carene>α-Terpineol>Breneol>L-Fenchone>D-Fenchone>Norpseudoephedrine HCl
cAMP upon Forskolin-stimulation, ascending order [3]: Fenchol<Carvamenthenol<α-Terpineol<Carene<Pentanone<Octopamine<Camphene

Carvamenthenol
descending order of phospho-ERK1/2 levels [2]: Fenchol>Octopamine>Carvamenthenol>Camphene>Pentanone>Synephrine>Leucinamide>Carene>α-Terpineol>Breneol>L-Fenchone>D-Fenchone>Norpseudoephedrine HCl
cAMP upon Forskolin-stimulation, ascending order [3]: Fenchol<Carvamenthenol<α-Terpineol<Carene<Pentanone<Octopamine<Camphene

CNCC(O)c1ccc(O)cc1 (centres unmarked) [Synephrine]
descending order of phospho-ERK1/2 levels [2]: Fenchol>Octopamine>Carvamenthenol>Camphene>Pentanone>Synephrine>Leucinamide>Carene>α-Terpineol>Breneol>L-Fenchone>D-Fenchone>Norpseudoephedrine HCl

NCC(O)c1ccc(O)cc1 (centres unmarked) [Octopamine]
descending order of phospho-ERK1/2 levels [2]: Fenchol>Octopamine>Carvamenthenol>Camphene>Pentanone>Synephrine>Leucinamide>Carene>α-Terpineol>Breneol>L-Fenchone>D-Fenchone>Norpseudoephedrine HCl
cAMP upon Forskolin-stimulation, ascending order [3]: Fenchol<Carvamenthenol<α-Terpineol<Carene<Pentanone<Octopamine<Camphene

C=C1C2CCC(C2)C1(C)C (centres unmarked) [Camphene]
descending order of phospho-ERK1/2 levels [2]: Fenchol>Octopamine>Carvamenthenol>Camphene>Pentanone>Synephrine>Leucinamide>Carene>α-Terpineol>Breneol>L-Fenchone>D-Fenchone>Norpseudoephedrine HCl
cAMP upon Forskolin-stimulation, ascending order [3]: Fenchol<Carvamenthenol<α-Terpineol<Carene<Pentanone<Octopamine<Camphene

CC1(C)C(=O)[C@@]2(C)CC[C@H]1C2 [L-Fenchone]
descending order of phospho-ERK1/2 levels [2]: Fenchol>Octopamine>Carvamenthenol>Camphene>Pentanone>Synephrine>Leucinamide>Carene>α-Terpineol>Breneol>L-Fenchone>D-Fenchone>Norpseudoephedrine HCl

CC1(C)C(=O)[C@@]2(C)CCC1C2 [D-Fenchone]
descending order of phospho-ERK1/2 levels [2]: Fenchol>Octopamine>Carvamenthenol>Camphene>Pentanone>Synephrine>Leucinamide>Carene>α-Terpineol>Breneol>L-Fenchone>D-Fenchone>Norpseudoephedrine HCl

Carene
descending order of phospho-ERK1/2 levels [2]: Fenchol>Octopamine>Carvamenthenol>Camphene>Pentanone>Synephrine>Leucinamide>Carene>α-Terpineol>Breneol>L-Fenchone>D-Fenchone>Norpseudoephedrine HCl
cAMP upon Forskolin-stimulation, ascending order [3]: Fenchol<Carvamenthenol<α-Terpineol<Carene<Pentanone<Octopamine<Camphene

CC1(C)C2CCC1(C)C(O)C2 (centres unmarked) [Breneol]
descending order of phospho-ERK1/2 levels [2]: Fenchol>Octopamine>Carvamenthenol>Camphene>Pentanone>Synephrine>Leucinamide>Carene>α-Terpineol>Breneol>L-Fenchone>D-Fenchone>Norpseudoephedrine HCl

C[C@H](N)[C@@H](O)c1ccccc1 [Norpseudoephedrine HCl]
descending order of phospho-ERK1/2 levels [2]: Fenchol>Octopamine>Carvamenthenol>Camphene>Pentanone>Synephrine>Leucinamide>Carene>α-Terpineol>Breneol>L-Fenchone>D-Fenchone>Norpseudoephedrine HCl
